Assay results published in patent publication US11793797B2, “Uses of a lysyl oxidase-like 2 inhibitor” (PHARMAKEA, INC., priority 2016, dated 2023).
Where two headings read alike, the source gives them in different places.

Experiments:
human LOXL2 = human LOXL2 (Homo sapiens (Human), UniProt Q9Y4K0); assay: Human LOXL2 CCM assay (Amplex Red amine oxidase activity); type: biochemical
Protocol: Human LOXL2/CHO and human LOX/HEK stable cell lines were cultured under normal growth conditions in 15 cm tissue culture plates until cells were ˜80% confluent. Cells were then washed with PBS before the addition of 25-30 mL serum-free media (Phenol red-free DMEM/F12 mix w/glutamax containing pen/strep, 10-100 μM CuCl2±0.1% BSA). Cells were incubated at 37° C., 5% CO2 in serum-free media for 40-48 hours before the conditioned media was removed and centrifuged at 2000 rpm for 5 min at 4° C. to pellet cells/debris. The media was concentrated 10-20× using 10-30 MWCO centriprep columns according to the manufacturer's instructions (EMD Millipore, Billerica, Mass.) before aliquoting and storing at −80° C.
LOXL2 amine oxidase activity was evaluated by measuring Amplex Red fluorescence using 10-20× concentrated conditioned media (non BSA-containing) from CHO cells stably expressing human LOXL2. To assay for amine oxidase activity, 10 μL of the concentrated conditioned media was incubated with 2 μL of test compound in DMSO and 73 μL Assay Buffer (50 mM Borate Buffer, pH8) for 2 h at 37° C. After the 2 h incubation, 5 μL of 10 mM 1,5-Diaminopentane (DAP) diluted in Assay Buffer and 10 μL of Amplex Red Mix (8.5 μL Assay Buffer+0.5 μL of 10 mM Amplex Red+1 μL of 500 U/ml Horseradish Peroxidase) were added and the plate mixed and immediately placed on the FlexStation for fluorescence measurements. Fluorescence was read in kinetic mode every 2 min for 0.5-1 hour at excitation=544 and emission=590. The amine oxidase activity was calculated from the slope of the linear portion of the curve. Wells containing vehicle (DMSO) represented maximum activity and were set to 0% inhibition and wells containing 100 μM βAPN (3-aminopropionitrile) represented no activity and were set to 100% inhibition.

[1] = system: collagen induced arthritis (CIA); settings: in vivo CIA mouse model; cited from earlier work
MDA-MB-435-GFP cells = assay: Mouse orthotopic breast cancer model; type: in vivo; settings: oral 60 mg/kg/day, at 4 weeks, nude mice
Protocol: Tumor stocks were made by subcutaneously (s.c.) injecting MDA-MB-435-GFP cells at a concentration of 5×10^6 cells/100 μL into the flank of nude mice. When the s.c. tumors reach 50-100 mm^3, tumors were harvested and cut into 1 mm^3 fragments. Two tumor fragments were transplanted into the mammary fat pad of each mouse. […] Docetaxel was administered at 10 mg/kg intravenously once a week for 4 weeks as a positive control. Tumor size was calculated from a measurement of perpendicular minor dimension (W) and major dimension (L) using the formula (W2×L)×½ with W and L measured using a digital caliper. Mice were sacrificed after 4 weeks.

[2] = system: bleomycin-induced lung fibrosis; assay: Mouse oropharyngeal bleomycin model of lung fibrosis; type: in vivo
Protocol: Lung fibrosis was induced in C57Bl/6 male mice by administering bleomycin (0.1-4 U/kg) via oropharyngeal instillation. Mice were either pretreated with vehicle or test compound orally, intraperitoneally, intravenously or subcutaneously either prophylactically (1 day to 1 hour before bleomycin instillation) or therapeutically (7-14 days post bleomycin instillation). The route and frequency of dosing were based on previously determined pharmacokinetic properties for the LOXL2 inhibitor in mouse. After bleomycin instillation, animals were monitored daily for weight loss and clinical signs for 14-28 days prior to sacrifice. Animals were euthanized at study termination and weighed. […] For histological examination, lung slices were stained with Masson's trichrome or picrosirius red to measure fibrillar collagen as an indicator of fibrosis and an Ashcroft score of lung fibrosis and inflammatory damage determined. […] After the acid hydrolysis, 25-100 μL of the supernatant is dried down, resuspended in 25 μL water and the hydroxyproline content determined by the addition of 0.5 mL Chloramine T solution (140 mg Chloramine T in 6.5 ml ddH2O+1 ml n-propanol+2.5 mL 1M sodium acetate) and incubation at room temperature for 20 min. […]
Fibrotic status was assessed histologically on Day 21 using Ashcroft score as a primary measure of lung fibrosis. […]

[3] = Pharmacokinetic study of Compound 1 or 2 in rat; type: in vivo; settings: male
Protocol: (§1) Blood samples were taken from each rat (approximately 0.3 mL total blood per time point) at pre-dose, 5 or 15 min and then at various time points up to 24 hours post-dose. Samples were collected on wet ice in tubes containing potassium EDTA (w/v in normal saline; BD Biosciences, Franklin Lakes, N.J. Plasma samples, prepared by centrifugation of whole blood, were stored frozen (−80° C.) prior to analysis. All other reagents were of analytical grade.
(§2) Analysis was performed on an LC-MS/MS systems comprised of a Sciex API-4000Qt tandem mass spectrometer (AB Sciex, Foster City, Calif.) interfaced to an HPLC system consisting of a single Agilent 1200 Series Quaternary system pump (Santa Clara, Calif.) and a LEAP PAL auto-injector (Greenville, S.C.). Analyses were performed using an Agilent Zorbax SB-C8 column (2.1×50 mm; 5 μm) for chromatographic separations at room temperature.

in vivo = settings: dog
Protocol: as §1, with “dog” for “rat”, “1” for “0.3”
as §2

[4] = system: liver fibrosis in BALB/c.Mdr2-/- mice; assay: Mouse Mdr2 knockout model of biliary fibrosis; type: in vivo; settings: a model of liver fibrosis
Protocol: Liver disease develops in the BALB/c.Mdr2−/− mouse model with bridging fibrosis/early cirrhosis between 8 and 12 weeks of age (Ikenaga et al. 2015 Am J Pathology, 185: 325-334). […] At the end of the study, mice were anesthetized with isoflurane (1.5% v/v) via precise vaporizer. After laparotomy, portal pressure was measured directly by inserting a high-fidelity pressure catheter into the portal vein and measuring pressure signals for 5 minutes. Serum was collected for analysis of liver (ALT, AST, ALP, and bilirubin) and kidney (creatinine) biochemistries. Part of the liver was fixed in 10% neutral buffered formalin for histopathological analysis of inflammation, necrosis and fibrosis by H&E staining and picrosirius red staining. Collagen area fraction was measured from picrosirius red stained images using an algorithm that separates the red stained collagen from non-specific staining through color subtraction and thresholding of the processed image. Sections were analyzed in random order using the same threshold value for each set. Data were deconvolved after analysis to identify group assignment. Collagen content was determined from a portion of the liver tissue using hydroxyproline analysis.

[5] = PO, 0.5% MC, 30 mg/kg, fasted, AUC0-t PO/AUC0-t IV
[6] = plasma, iv, 2 mg/kg, saline, fed

human LOXL2, sequence (Q9Y4K0 26-774): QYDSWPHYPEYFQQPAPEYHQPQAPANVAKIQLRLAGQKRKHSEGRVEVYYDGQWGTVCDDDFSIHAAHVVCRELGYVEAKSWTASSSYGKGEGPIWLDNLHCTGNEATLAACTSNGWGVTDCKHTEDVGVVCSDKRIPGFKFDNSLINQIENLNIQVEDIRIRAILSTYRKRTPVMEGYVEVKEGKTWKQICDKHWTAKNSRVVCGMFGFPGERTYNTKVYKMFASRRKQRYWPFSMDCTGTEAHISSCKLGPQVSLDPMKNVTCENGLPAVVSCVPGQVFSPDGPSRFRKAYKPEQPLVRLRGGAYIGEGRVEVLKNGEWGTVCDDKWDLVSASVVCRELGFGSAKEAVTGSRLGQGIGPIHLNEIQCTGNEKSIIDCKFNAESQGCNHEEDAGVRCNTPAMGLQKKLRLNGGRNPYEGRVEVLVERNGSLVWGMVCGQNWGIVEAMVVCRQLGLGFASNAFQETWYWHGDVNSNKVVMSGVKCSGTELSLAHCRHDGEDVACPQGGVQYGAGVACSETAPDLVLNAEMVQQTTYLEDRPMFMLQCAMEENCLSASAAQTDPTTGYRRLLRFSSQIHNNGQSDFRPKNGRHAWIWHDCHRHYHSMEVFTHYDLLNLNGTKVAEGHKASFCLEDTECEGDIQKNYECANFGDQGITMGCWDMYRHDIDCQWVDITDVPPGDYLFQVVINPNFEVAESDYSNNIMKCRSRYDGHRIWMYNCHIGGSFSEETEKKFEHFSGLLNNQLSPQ

NCc1cc(Oc2cccc(C(=O)N3C[C@H](O)[C@@H](F)C3)c2)nc(C(F)(F)F)c1 (single isomer, unassigned) [Compound Ent-1]
IC50 (human LOXL2; human LOXL2 CCM (non BSA-containing), 2 h preincubation at 37° C., read-out: IC50): < 0.3 µM

N#CCCN [BAPN, β-aminopropionitrile]
effect on collagen induced arthritis [1]: ameliorated collagen induced arthritis (CIA)

NCc1cc(Oc2cccc(C(=O)N3C[C@@H](O)[C@H](F)C3)c2)nc(C(F)(F)F)c1 [Compound 1, (R,R)-trans-(3-((4-(aminomethyl)-6-(trifluoromethyl)pyridin-2-yl)oxy)phenyl)(3-fluoro-4-hydroxypyrrolidin-1-yl)methanone]
reduction in tumor volume (MDA-MB-435-GFP cells): 35% | Ashcroft score, mean value after treatment ([2]; prophylactic, oral 60 mg/kg/day from Day -1, Day 14, reduced from mean 3.1): 0.8 | normalization of Ashcroft score ([2]; recovery study, oral 60 mg/kg starting Day 14 after bleomycin, lungs harvested Day 28): 73% | IC50 (human LOXL2; CCM containing BSA, read-out: IC50, LOXL2 (CCM containing BSA)): 0.116 µM | AUC0-t hr/Dose ([3]; IV, saline, 2 mg/kg, fed): 0.07 | AUC0-t hr/Dose ([3]; PO, 0.5% MC, 30 mg/kg, fasted): 0.05 | F(%) [3, 5]: 71% | AUC0-t hr/Dose ([3]; PO, capsule, 15 mg/kg, fasted): 0.05 | Cmax ([3]; plasma, iv, 2 mg/kg, IV, saline, 2 mg/kg, fed, read-out: Cmax): 0.63 µg/mL | Tmax ([3]; plasma, iv, 2 mg/kg, IV, saline, 2 mg/kg, fed, read-out: Tmax): 4.98 min | AUC(0-t) [3, 6]: 0.14 µg·h/mL | bioavailability [3, 6]: 100% | bioavailability ([3]; plasma, oral, 15 mg/kg, capsule, fasted, AUC0-t PO/AUC0-t IV): 69% | Cmax ([3]; plasma, po, 15 mg/kg, PO, capsule, 15 mg/kg, fasted, read-out: Cmax): 1.2 µg/mL | Tmax ([3]; plasma, po, 15 mg/kg, PO, capsule, 15 mg/kg, fasted, read-out: Tmax): 36 min | AUC(0-t) ([3]; plasma, po, 15 mg/kg, capsule, fasted): 0.74 µg·h/mL | AUC(0-t) ([3]; plasma, po, 30 mg/kg, 0.5% MC, fasted): 1.4 µg·h/mL | Cmax ([3]; plasma, po, 30 mg/kg, PO, 0.5% MC, 30 mg/kg, fasted, read-out: Cmax): 1.7 µg/mL | Tmax ([3]; plasma, po, 30 mg/kg, PO, 0.5% MC, 30 mg/kg, fasted, read-out: Tmax): 15 min | emesis (clinical observations) (in vivo; po): Emesis was prevalent in all dose groups | AUC0-t hr/Dose (in vivo; po, 100 mg/kg): 0.85 | bioavailability (in vivo; male, beagle, 100 mg/kg, F(%)): 283% | Tmax (in vivo; male, beagle, po, 100 mg/kg): 78 min | AUC(0-t) (in vivo; male, beagle, po, 100 mg/kg, AUC(0-t hr)): 85 µg·h/mL | Cmax (in vivo; male, beagle, po, 100 mg/kg): 27 µg/mL

NCc1cc(Oc2cccc(C(=O)N3C[C@@H](O)[C@H](F)C3)c2)nc(C(F)(F)F)c1 [Compound 2, (R,R)-trans-(3-((4-(aminomethyl)-6-(trifluoromethyl)pyridin-2-yl)oxy)phenyl)(3-fluoro-4-hydroxypyrrolidin-1-yl)methanone]
AUC0-t hr/Dose ([3]; PO, 0.5% MC, 30 mg/kg, fasted): 0.07 | AUC(0-t hr) ([3]; PO, 0.5% MC, 30 mg/kg, fasted): 2.0 µg·h/mL | Cmax ([3]; PO, 0.5% MC, 30 mg/kg, fasted): 2.6 µg/mL | Tmax ([3]; PO, 0.5% MC, 30 mg/kg, fasted): 25.2 min | F(%) [3, 5]: 95% | emesis (clinical observations) (in vivo; po): Emesis was prevalent in all dose groups | tolerability by dosing form (clinical observations) (in vivo; po): oral capsule and potentially the tablet were better tolerated | Cmax (in vivo; male, beagle, po, 300 mg/kg): 143 µg/mL | Tmax (in vivo; male, beagle, po, 300 mg/kg, Tmax): 18 min

NCc1cc(Oc2cccc(C(=O)N3C[C@@H](O)[C@H](F)C3)c2)nc(C(F)(F)F)c1 [Compound I, (R,R)-trans-(3-((4-(aminomethyl)-6-(trifluoromethyl)pyridin-2-yl)oxy)phenyl)(3-fluoro-4-hydroxypyrrolidin-1-yl)methanone]
fibrosis as area fraction of Picrosirius red (collagen) positive staining [4]: significantly reduced fibrosis | potency relative to the (S,S)-isomer (human LOXL2; in vitro assays): less than 2 fold
